Experiments:
Format in all cases: functional
Settings in all cases: time 18-20 hrs
[1] = tested on: Klebsiella pneumoniae; assay: Antibacterial activity against Klebsiella pneumoniae 15-1 assessed as inhibition of bacterial growth measured after 18 to 20 hrs by broth microdilution method
[2] = tested on: Pseudomonas aeruginosa; assay: Antibacterial activity against Pseudomonas aeruginosa 19-5 assessed as inhibition of bacterial growth measured after 18 to 20 hrs by broth microdilution method
[3] = tested on: Escherichia coli; assay: Antibacterial activity against Escherichia coli ATCC 35218 assessed as inhibition of bacterial growth measured after 18 to 20 hrs by broth microdilution method
[4] = tested on: Pseudomonas aeruginosa; assay: Antibacterial activity against Pseudomonas aeruginosa 17-1 assessed as inhibition of bacterial growth measured after 18 to 20 hrs by broth microdilution method
[5] = tested on: Escherichia coli; assay: Antibacterial activity against Escherichia coli 14-2 assessed as inhibition of bacterial growth measured after 18 to 20 hrs by broth microdilution method
[6] = tested on: Klebsiella pneumoniae; assay: Antibacterial activity against Klebsiella pneumoniae 15-5 assessed as inhibition of bacterial growth measured after 18 to 20 hrs by broth microdilution method
[7] = tested on: Klebsiella pneumoniae; assay: Antibacterial activity against Klebsiella pneumoniae 15-4 assessed as inhibition of bacterial growth measured after 18 to 20 hrs by broth microdilution method
[8] = tested on: Escherichia coli; assay: Antibacterial activity against Escherichia coli 14-4 assessed as inhibition of bacterial growth measured after 18 to 20 hrs by broth microdilution method
[9] = tested on: Acinetobacter baumannii; assay: Antibacterial activity against Acinetobacter baumannii 17-2 assessed as inhibition of bacterial growth measured after 18 to 20 hrs by broth microdilution method
[10] = tested on: Acinetobacter baumannii; assay: Antibacterial activity against Acinetobacter baumannii 17-8 assessed as inhibition of bacterial growth measured after 18 to 20 hrs by broth microdilution method

| Compound | MIC [1] [µg/mL] | MIC [2] [µg/mL] | MIC [3] [µg/mL] | MIC [4] [µg/mL] | MIC [5] [µg/mL] | MIC [6] [µg/mL] | MIC [7] [µg/mL] | MIC [8] [µg/mL] | MIC [9] [µg/mL] | MIC [10] [µg/mL] |
| --- | --- | --- | --- | --- | --- | --- | --- | --- | --- | --- |
| Cc1nc(-c2ccc(C(C)(C)C)cc2)ncc1NC(=O)N[C@@H](CCN)C(=O)N(C)[C@@H]1C(=O)N[C@@H](C)C(=O)N[C@H](C(=O)NCC#N)Cc2ccc(OCCN)c(c2)-c2cc1ccc2OCCN.O=C(O)C(F)(F)F.O=C(O)C(F)(F)F.O=C(O)C(F)(F)F.O=C(O)C(F)(F)F | 16 | > 64 | 4 | > 64 | 16 | 16 | 32 | 8 | 32 | 8 |
| Cc1nc(-c2ccc(C(C)(C)C)cc2)ncc1CN[C@@H](CCN)C(=O)N(C)[C@@H]1C(=O)N[C@@H](C)C(=O)N[C@H](C(=O)NCC#N)Cc2ccc(OCCN)c(c2)-c2cc1ccc2OCCN.O=C(O)C(F)(F)F.O=C(O)C(F)(F)F.O=C(O)C(F)(F)F.O=C(O)C(F)(F)F | 16 | > 64 | 0.5 | 64 | 4 | 16 | 32 | 2 | 8 | 2 |
| C=CC(=O)N[C@@H]1Cc2ccc(OCCN)c(c2)-c2cc(ccc2OCCN)[C@H](N(C)C(=O)[C@H](CCN)NC(=O)c2cnc(-c3ccc(C(C)(C)C)cc3)nc2C)C(=O)N[C@@H](C)C(=O)N1.O=C(O)C(F)(F)F.O=C(O)C(F)(F)F.O=C(O)C(F)(F)F.O=C(O)C(F)(F)F | 32 | > 64 | 64 | > 64 | 64 | 32 | 64 | 64 | > 64 | 64 |
| Cc1nc(-c2ccc(CSSC(C)(C)C)c(F)c2)ncc1C(=O)N[C@@H](CCN)C(=O)N(C)[C@@H]1C(=O)N[C@@H](C)C(=O)N[C@H](C(=O)NCC#N)Cc2ccc(OCCN)c(c2)-c2cc1ccc2OCCN.O=C(O)C(F)(F)F.O=C(O)C(F)(F)F.O=C(O)C(F)(F)F.O=C(O)C(F)(F)F | 0.25 | 4 | 0.06 | 4 | 0.125 | 0.25 | 0.25 | 0.125 | 1 | 1 |
| Cc1nc(-c2ccc(C(C)(C)C)cc2)ncc1C(=O)C(=O)N[C@@H](CCN)C(=O)N(C)[C@@H]1C(=O)N[C@@H](C)C(=O)N[C@H](C(=O)NCC#N)Cc2ccc(OCCN)c(c2)-c2cc1ccc2OCCN.O=C(O)C(F)(F)F.O=C(O)C(F)(F)F.O=C(O)C(F)(F)F.O=C(O)C(F)(F)F | 8 | 64 | 2 | 32 | 2 | 8 | 16 | 2 | 4 | 1 |
| Cc1nc(-c2ccc([C@@H](C)SSC(C)(C)C)cc2)ncc1C(=O)N[C@@H](CCN)C(=O)N(C)[C@@H]1C(=O)N[C@@H](C)C(=O)N[C@H](C(=O)NCC#N)Cc2ccc(OCCN)c(c2)-c2cc1ccc2OCCN.O=C(O)C(F)(F)F.O=C(O)C(F)(F)F.O=C(O)C(F)(F)F.O=C(O)C(F)(F)F | 0.25 | 4 | ≤ 0.03 | 4 | ≤ 0.03 | 0.125 | 0.25 | ≤ 0.03 | 0.5 | 0.5 |
| CCCCCSSc1ccc(-c2ncc(C(=O)N[C@@H](CCN)C(=O)N(C)[C@@H]3C(=O)N[C@@H](C)C(=O)N[C@H](C(=O)NCC#N)Cc4ccc(OCCN)c(c4)-c4cc3ccc4OCCN)c(C)n2)cc1.O=C(O)C(F)(F)F.O=C(O)C(F)(F)F.O=C(O)C(F)(F)F.O=C(O)C(F)(F)F | 1 | 4 | 0.5 | 4 | 0.25 | 0.5 | 0.5 | 0.25 | 2 | 1 |
| Cc1nc(-c2ccc(CCCSSC(C)(C)C)cc2)ncc1C(=O)N[C@@H](CCN)C(=O)N(C)[C@@H]1C(=O)N[C@@H](C)C(=O)N[C@H](C(=O)NCC#N)Cc2ccc(OCCN)c(c2)-c2cc1ccc2OCCN.O=C(O)C(F)(F)F.O=C(O)C(F)(F)F.O=C(O)C(F)(F)F.O=C(O)C(F)(F)F | 0.5 | 2 | 0.5 | 4 | 0.5 | 0.5 | 0.5 | 0.25 | 1 | 1 |
| Cc1nc(-c2ccc(C(C)(C)C)cc2)ncc1C(=O)N[C@@H](CCN)C(=O)N(C)[C@@H]1C(=O)N[C@@H](C)C(=O)N[C@H](C(=O)NCP(=O)(O)O)Cc2ccc(OCCN)c(c2)-c2cc1ccc2OCCN.Cl.Cl.Cl.Cl | 0.5 | 64 | 0.25 | 64 | 1 | 0.25 | 0.5 | 0.25 | 8 | 4 |
| Cc1nc(-c2ccc(C(C)(C)C)cc2)ncc1C(=O)N[C@@H](CCN)C(=O)N(C)[C@@H]1C(=O)N[C@@H](C)C(=O)N[C@H](NC(=O)NCC#N)Cc2ccc(OCCN)c(c2)-c2cc1ccc2OCCN.O=C(O)C(F)(F)F.O=C(O)C(F)(F)F.O=C(O)C(F)(F)F.O=C(O)C(F)(F)F | > 64 | > 64 | 32 | > 64 | 64 | > 64 | > 64 | 64 | > 64 | > 64 |
| CCCCCCCSSCc1ccc(-c2ncc(C(=O)N[C@@H](CCN)C(=O)N(C)[C@@H]3C(=O)N[C@@H](C)C(=O)N[C@H](C(=O)NCC#N)Cc4ccc(OCCN)c(c4)-c4cc3ccc4OCCN)c(C)n2)cc1.O=C(O)C(F)(F)F.O=C(O)C(F)(F)F.O=C(O)C(F)(F)F.O=C(O)C(F)(F)F | 2 | 4 | 2 | 4 | 1 | 2 | 2 | 1 | 2 | 2 |

Now those with a lower MIC [1], led by results:

| MIC [1] [µg/mL] | MIC [2] [µg/mL] | MIC [3] [µg/mL] | MIC [4] [µg/mL] | MIC [5] [µg/mL] | MIC [6] [µg/mL] | MIC [7] [µg/mL] | MIC [8] [µg/mL] | MIC [9] [µg/mL] | MIC [10] [µg/mL] | Compound |
| --- | --- | --- | --- | --- | --- | --- | --- | --- | --- | --- |
| 0.125 | 1 | ≤ 0.03 | 4 | ≤ 0.03 | 0.125 | 0.125 | ≤ 0.03 | 0.25 | 0.25 | Cc1nc(-c2ccc([C@H](C)SSC(C)(C)C)cc2)ncc1C(=O)N[C@@H](CCN)C(=O)N(C)[C@@H]1C(=O)N[C@@H](C)C(=O)N[C@H](C(=O)NCC#N)Cc2ccc(OCCN)c(c2)-c2cc1ccc2OCCN.O=C(O)C(F)(F)F.O=C(O)C(F)(F)F.O=C(O)C(F)(F)F.O=C(O)C(F)(F)F |
| ≤ 0.03 | > 64 | ≤ 0.03 | > 64 | ≤ 0.03 | ≤ 0.03 | 0.25 | 0.06 | 4 | 2 | CSSC(C)(C)c1ccc(-c2ncc(C(=O)N[C@@H](CCN)C(=O)N(C)[C@@H]3C(=O)N[C@@H](C)C(=O)N[C@H](C(=O)O)Cc4ccc(OCCN)c(c4)-c4cc3ccc4OCCN)c(C)n2)cc1.O=C(O)C(F)(F)F.O=C(O)C(F)(F)F.O=C(O)C(F)(F)F.O=C(O)C(F)(F)F |
| 0.125 | 4 | ≤ 0.03 | 4 | ≤ 0.03 | 0.25 | 0.25 | ≤ 0.03 | 1 | 0.5 | Cc1nc(-c2ccc(C(C)(C)SSC(C)(C)C)cc2)ncc1C(=O)N[C@@H](CCN)C(=O)N(C)[C@@H]1C(=O)N[C@@H](C)C(=O)N[C@H](C(=O)NCC#N)Cc2ccc(OCCN)c(c2)-c2cc1ccc2OCCN.O=C(O)C(F)(F)F.O=C(O)C(F)(F)F.O=C(O)C(F)(F)F.O=C(O)C(F)(F)F |
| 0.06 | 8 | ≤ 0.03 | 8 | 0.125 | 0.125 | 0.125 | 0.06 | 2 | 1 | CCSSc1ccc(-c2ncc(C(=O)N[C@@H](CCN)C(=O)N(C)[C@@H]3C(=O)N[C@@H](C)C(=O)N[C@H](C(=O)NCC#N)Cc4ccc(OCCN)c(c4)-c4cc3ccc4OCCN)c(C)n2)cc1.O=C(O)C(F)(F)F.O=C(O)C(F)(F)F.O=C(O)C(F)(F)F.O=C(O)C(F)(F)F |
| 0.125 | 4 | ≤ 0.03 | 8 | 0.125 | 0.25 | 0.25 | 0.125 | 1 | 0.5 | Cc1nc(-c2ccc(CSSC3CCC3)cc2)ncc1C(=O)N[C@@H](CCN)C(=O)N(C)[C@@H]1C(=O)N[C@@H](C)C(=O)N[C@H](C(=O)NCC#N)Cc2ccc(OCCN)c(c2)-c2cc1ccc2OCCN.O=C(O)C(F)(F)F.O=C(O)C(F)(F)F.O=C(O)C(F)(F)F.O=C(O)C(F)(F)F |
| 0.06 | > 64 | 0.06 | > 64 | 0.125 | 0.125 | 0.25 | 0.5 | 8 | 1 | Cc1nc(-c2ccc(C(C)(C)C)cc2)ncc1C(=O)N[C@@H](CCN)C(=O)N(C)[C@@H]1C(=O)N[C@@H](C)C(=O)N[C@H](C(=O)O)Cc2ccc(OCCN)c(c2)-c2cc1ccc2OCCN.O=C(O)C(F)(F)F.O=C(O)C(F)(F)F.O=C(O)C(F)(F)F.O=C(O)C(F)(F)F |

Source: ChEMBL document CHEMBL5518248, “Design, Synthesis, and Biological Evaluation of Novel Arylomycins against Multidrug-Resistant Gram-Negative Bacteria” (J Med Chem, 2024)
